Converted amounts (≈) assume the structure as drawn. Like-named read-outs stand apart in the source and are kept apart here.
Experiments:
Assay type in all cases: cell-based
S. aureus ATCC 43300 = test: In vitro antibacterial activity assay (MIC, broth dilution); details: Staphylococcus aureus
Source text: (§1) The method used to indicate the activity of the compounds in this example is to record the minimum inhibitory concentration (MIC) of the compounds against bacteria. The specific experimental method is as follows:
(§2) 1. The bacterial liquid cultured from a single colony was taken, and diluted into autoclaved CAMHB broth in a ratio of 1:1000, and mixed well.
(§3) 2. The prepared drug solution was filtered through a sterile 0.22 µm syringe filter and placed in a sterile EP tube for later use.
(§4) 3. A 96-well plate was taken, and 20 µL of drug solution ([…]) was added to each well in the first column of the 96-well plate. Then, 180 µL of diluted bacterial liquid was added and mixed well (Perform 3 replicate rows for each drug).
(§5) The same process was performed for the hydrochloride drug.
(§6) 4. 100 μL of diluted bacterial liquid was added to each well in the remaining 11 columns of the 96-well plate. Drugs are the same as above.
(§7) 5. Serial dilution: 100 μL of liquid was taken from the first column to the second column, mixed well, then 100 μL of liquid was taken from the second column to the third column, mixed well, and so on, sequentially diluting down to the last column (column 12). After mixing column 12 well, 100 μL of liquid thereof was discarded. The drug concentration in each well was decreased by two-fold serially (the concentration in the first well is 40 μg/mL).
(§8) 6. Blank CAMHB broth without added bacteria liquid was added to 3 blank wells in the 96-well plate, as negative control.
(§9) 7. The diluted bacterial liquid was added to 3 blank wells in the 96-well plate, as positive control.
(§10) 8. Incubated at 37° C. for 16 hours.
(§11) 9. Results reading: the minimum inhibitory concentration is the minimum drug concentration at which no bacterial growth is visible to the naked eye and without turbidity.

E. coli ATCC 25922 = test: as above; details: Escherichia coli
Source text: as §1, §2, §3, §4, §5, §6, §7, §8, §9, §10, §11

Hela = test: In vitro anticancer activity test (MTT cell proliferation); details: Homo sapiens, read-out: Hela Average inhibition rate %
Method: The anticancer activity of the compounds was tested using an in vitro cancer cell tests. The specific test method is as follows:
1. Cell recovery and culture method: the cryovial was taken out from the liquid nitrogen container firstly, soaked directly in 37° C. warm water, and shaked from time to time to let it thaw as soon as possible. Then, the cryovial was transferred to a clean bench, and the lid was open. The cell suspension was taken into a centrifuge tube using a rubber-tipped dropper and more than 10 times the culture medium was added, mixed well, and centrifuged at 50 g for 5 minutes. Then, the supernatant was discarded, complete culture medium containing 10% fetal bovine serum was added to resuspend the cells, the cells was counted, the cell density was adjusted, and then inoculated into a culture bottle. The culture bottle was placed in a cell culture incubator at 5% CO2 and 37° C. The complete culture medium was replaced once the next day and the culture was continued.
2. Cell passaging method: adherent cells in the logarithmic growth phase were placed in a clean bench, the original culture medium was discarded, and washed three times with 1×PBS. An appropriate amount of 0.25% trypsin digestion solution was added to moisten the cells, and then the trypsin solution was aspirated. The cells were placed in a cell culture incubator at 5% CO2 and 37° C. for digestion for a suitable time, and observed under a microscope. When 90% of the cells become round, the cells were moved immediately to the clean bench and complete culture medium was added to terminate digestion. Then, the cells were dislodged by pipetting up and down with a rubber-tipped dropper to single cells. The cells were counted, and the cell density was adjusted. The cells were inoculated into a suitable culture bottle or dish, added enough complete culture medium, and placed in a cell culture incubator at 5% CO2 and 37° C. for static culture.
For suspension cells in the logarithmic phase, the original culture medium was directly centrifuged at 50 g for 5 minutes, the supernatant was discarded, and the cells were washed once with PBS and centrifuged. After discarding the supernatant, the complete culture medium was added and the cells were dispersed using a rubber-tipped dropper. The cells are counted, and the cell density was adjusted. The cells were inoculated into appropriate culture bottles or culture dishes, and sufficient complete culture medium was added, and the cells were cultured in a cell culture incubator at 5% CO2 and 37° C.
3. Cell proliferation assay: cells in good state in logarithmic phase were taken and appropriate amount of the cells was inoculated into 96-well plates according to the cell passage treatment method, with each well containing 180 μL complete medium. After the cells growth was recovered and the number of cells in each well is 5000±500, a drug was added for treatment.
After drug treatment during the experimental time, MTT solution with a final concentration of 0.5 mg/mL was added to each well, and placed in a cell culture incubator at 5% CO2 and 37° C. to allow a fully reaction of MTT with cells. After 4 hours, the solution in the 96-well plate was discarded, 100 µL of DMSO was added, and shaked to dissolve the formazan precipitated at the bottom of the plate, and the absorbance value of samples was detected at a wavelength of 570 nm using a microplate reader. Calculation method of cell viability rate:
Table 4 lists some compounds that have inhibitory effects against both of bacteria and cancer cells. In the table, the inhibitory effects against cancer cells are shown: the average proliferation inhibition rate (%) against cancer cells at the dosage of 40 μM.

[1] = tested on: Staphylococcus aureus ATCC43300; test: Resistance test of bacteria against compounds (serial induction, 21 days); details: period of 21 days, S. aureus ATCC43300
Method: This example provides a resistance test of bacteria against compounds, and the specific experimental method is as follows.
1. […] It was ensured that among the 6 final concentrations of the drug diluted into the wells, some were higher than the original MIC of the bacteria and some were lower than the original MIC of the bacteria.
2. Preparation of bacterial liquid: 10 mL of culture medium was taken and added to a sterilized plate using a pipette, then 100 µL of the above-mentioned passaged bacterial liquid was added, and mixed well for later use.
3. The above-mentioned diluted bacterial liquid was taken and added to a 96-well plate using a pipette, 180 μL per well, 3 wells per group, 6 groups in total. 20 μL of drug solution was added to each well (note: it is necessary to replace the pipette tip each time the drug is added), so that the final drug concentrations were […], respectively. The well with 200 μL of diluted bacterial liquid was used as the positive control well, and the well with 200 μL of culture medium was used as the negative control well.
The test object was Staphylococcus aureus (S. aureus).

[2] = ATCC43300, Table 3, read-out: MIC S. aureus ATCC 43300
[3] = ATCC25922, Table 3, read-out: MIC E. coli ATCC 25922
[4] = average proliferation inhibition rate at the dosage of 40 μM
[5] = ATCC43300, Table 4, read-out: S. aureus ATCC 43300 MIC
[6] = ATCC25922, Table 4, read-out: E. coli ATCC 25922 MIC

Structure (SMILES)	MIC (S. aureus ATCC 43300; [2])	MIC (E. coli ATCC 25922; [3])	inhibition at 40 µM (Hela; [4])	MIC (S. aureus ATCC 43300; [5])	MIC (E. coli ATCC 25922; [6])	further results
Nc1cnc(-c2cc3c(cc2F)c(=O)c(C(=O)O)cn3C2CC2)cc1F [Example 91]	0.1 to 1 µg/mL (≈ 0.28 to 2.8 µM)	0.1 to 1 µg/mL (≈ 0.28 to 2.8 µM)				
CC(=O)Nc1ccc(-c2cc3c(cc2F)c(=O)c(C(=O)O)cn3C2CC2)nc1 [Example 93]						inhibition at 40 µM (Hela): ≥ 20%; MIC (S. aureus ATCC 43300; ATCC43300, read-out: MIC S. aureus ATCC 43300): 0.1 to 1 µg/mL (≈ 0.262 to 2.62 µM); MIC (S. aureus ATCC 43300; ATCC43300, read-out: S. aureus ATCC 43300 MIC): ≤ 1 µg/mL; MIC (E. coli ATCC 25922; ATCC25922, read-out: E. coli ATCC 25922 MIC): ≤ 1 µg/mL; MIC (E. coli ATCC 25922; ATCC25922, read-out: MIC E. coli ATCC 25922): 0.1 to 1 µg/mL (≈ 0.262 to 2.62 µM)
O=C(CCl)Nc1cnc(-c2cc3c(cc2F)c(=O)c(C(=O)O)cn3C2CC2)cn1 [Example 96]	≤ 0.1 µg/mL	≤ 0.1 µg/mL				
O=C(O)c1cn(C2CC2)c2cc(-c3ccc4c(c3)CNS4(=O)=O)c(F)cc2c1=O [Example 107]	≤ 0.1 µg/mL	0.1 to 1 µg/mL (≈ 0.241 to 2.41 µM)	≥ 20%	≤ 1 µg/mL	≤ 1 µg/mL	
COc1c(-c2ccc(S(N)(=O)=O)c([N+](=O)[O-])c2)c(F)cc2c(=O)c(C(=O)O)cn(C3CC3)c12 [Example 110]	≤ 0.1 µg/mL	≤ 0.1 µg/mL				
N#Cc1cc(-c2cc3c(cc2F)c(=O)c(C(=O)O)cn3C2CC2)ccc1S(=O)(=O)NCCCC(F)(F)F [Example 111]	0.1 to 1 µg/mL (≈ 0.186 to 1.86 µM)	0.1 to 1 µg/mL (≈ 0.186 to 1.86 µM)				
O=C(O)c1cn(C2CC2)c2cc(-c3ccc4c(c3)S(=O)(=O)NC4)c(F)cc2c1=O [Example 113]	≤ 0.1 µg/mL	≤ 0.1 µg/mL	≥ 20%	≤ 1 µg/mL	≤ 1 µg/mL	
C#CCNS(=O)(=O)c1ccc(-c2cc3c(cc2F)c(=O)c(C(=O)O)cn3C2CC2)cc1[N+](=O)[O-] [Example 116]	0.1 to 1 µg/mL (≈ 0.206 to 2.06 µM)	0.1 to 1 µg/mL (≈ 0.206 to 2.06 µM)				
CCCCCCCNS(=O)(=O)c1ccc(-c2cc3c(cc2F)c(=O)c(C(=O)O)cn3C2CC2)cn1 [Example 128]	≤ 0.1 µg/mL	1 to 8 µg/mL (≈ 1.99 to 15.9 µM)	≥ 20%	≤ 1 µg/mL	≥ 1 µg/mL	
COc1c(-c2ccnc(CO)c2)c(F)cc2c(=O)c(C(=O)O)cn(C3CC3)c12 [Example 148]	1 to 8 µg/mL (≈ 2.6 to 20.8 µM)	≤ 0.1 µg/mL	≥ 20%	≥ 1 µg/mL	≤ 1 µg/mL	
Nc1cc(-c2c(F)cc3c(=O)c(C(=O)O)cn(C4CC4)c3c2Cl)ccn1 [Example 151]	≤ 0.1 µg/mL	≤ 0.1 µg/mL	≥ 20%	≤ 1 µg/mL	≤ 1 µg/mL	
CN[C@H](CC(C)C)C(=O)N[C@H]1C(=O)N[C@@H](CC(N)=O)C(=O)N[C@H]2C(=O)N[C@H]3C(=O)N[C@H](C(=O)N[C@H](C(=O)O)c4cc(O)cc(O)c4-c4cc3ccc4O)[C@H](O)c3ccc(c(Cl)c3)Oc3cc2cc(c3O[C@@H]2O[C@H](CO)[C@@H](O)[C@H](O)[C@H]2O[C@H]2C[C@](C)(N)[C@H](O)[C@H](C)O2)Oc2ccc(cc2Cl)[C@H]1O [vancomycin]						MIC at the end of the resistance experiment [1]: 4 µg/mL

From patent US20260224555A1, “NEW PHENYLQUINOLONE COMPOUND HAVING ANTIBACTERIAL AND ANTI-CANCER FUNCTIONS AND PREPARATION THEREOF” (AlphaMol Science Ltd (Shanghai), priority 2022, published 2026)
